Source: the supplement of paper PMC10307832

Columns and labels:
Test in all cases: relative viability (nuclei count vs DMSO), 5 days (fraction); higher = more cells survive
[1] = compound: COc1cc2c(Oc3ccc4[nH]c(C)cc4c3F)ncnc2cc1OCCCN1CCCC1 [Cediranib] + CC(C)C[C@H](NC(=O)[C@H](Cc1ccccc1)NC(=O)c1cnccn1)B(O)O [Bortezomib] (partner 0.002 µM)
Method in brief: (§1)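 Lung cancer cell lines, seeded in 1536-well plates, were treated the following day by pin tool with a single drug or with five library-drug doses (not always all listed) in √10 steps on top of a fixed anchor-drug dose. Cells were fixed and nuclei stained in one step after 5 days, and nuclei were counted. Relative viability is the nuclei count for treated wells divided by that for vehicle wells, reported as medians of duplicate plates.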

[2] = compound: COc1cc2c(Oc3ccc4[nH]c(C)cc4c3F)ncnc2cc1OCCCN1CCCC1 [Cediranib] + NC(=O)Nc1cc(-c2cccc(F)c2)sc1C(=O)N[C@H]1CCCNC1 [AZD7762] (partner 0.2 µM)
Method in brief: as §1

[3] = compound: Nc1ncn([C@H]2C[C@H](O)[C@@H](CO)O2)c(=O)n1 [Decitabine] + C[C@]1(O)C[C@@H](c2nc(-c3ccc4ccc(-c5ccccc5)nc4c3)c3c(N)nccn32)C1 [Linsitinib] (partner 1 µM)
Method in brief: as §1

[4] = compound: O=C(C[C@H]1NCCC[C@@H]1O)Cn1cnc2cc(Br)c(Cl)cc2c1=O (racemic) [Halofuginone] + CCNC(=O)c1noc(-c2cc(C(C)C)c(O)cc2O)c1-c1ccc(CN2CCOCC2)cc1 [Luminespib] (partner 0.01 µM)
Method in brief: as §1

Cell Line | relative viability ([1]; first compound 0.04 µM) | relative viability ([1]; first compound 0.1265 µM) | relative viability ([1]; first compound 0.4 µM) | relative viability ([1]; first compound 1.265 µM) | relative viability ([1]; first compound 4 µM) | relative viability ([2]; first compound 0.04 µM) | relative viability ([2]; first compound 0.1265 µM) | relative viability ([2]; first compound 0.4 µM) | relative viability ([2]; first compound 1.265 µM) | relative viability ([2]; first compound 4 µM) | relative viability ([3]; first compound 0.04 µM) | relative viability ([3]; first compound 0.1265 µM) | relative viability ([3]; first compound 0.4 µM) | relative viability ([3]; first compound 1.265 µM) | relative viability ([3]; first compound 4 µM) | relative viability ([4]; first compound 0.001 µM) | relative viability ([4]; first compound 0.003162 µM) | relative viability ([4]; first compound 0.01 µM) | relative viability ([4]; first compound 0.03162 µM) | relative viability ([4]; first compound 0.1 µM)
HCC-366 | 0.968 | 1.03 | 0.963 | 0.888 | 1.22 | 0.41 | 0.314 | 0.181 | 0.376 | 0.266 | 0.535 | 0.743 | 0.339 | 0.14 | 0.111 | – | – | – | – | –
IA-LM | 1.01 | 1.14 | 0.926 | 0.771 | 0.912 | – | – | – | – | – | 0.281 | 0.461 | 0.174 | 0.155 | 0.129 | – | – | – | – | –
LK-2 | – | – | – | – | – | 0.463 | 0.275 | 0.327 | 0.284 | 0.319 | 0.462 | 0.637 | 0.509 | 0.502 | 0.387 | 0.152 | 0.147 | 0.181 | 0.205 | 0.179
NCI-H358 | – | – | – | – | – | 0.613 | 0.496 | 0.478 | 0.596 | 0.502 | 0.87 | 0.822 | 0.521 | 0.272 | 0.293 | 0.306 | 0.455 | 0.229 | 0.205 | 0.154
NCI-H520 | 0.734 | – | 0.687 | 0.462 | 0.622 | – | – | – | – | – | 1.13 | 0.916 | 0.633 | 0.333 | 0.324 | 0.232 | 0.241 | 0.185 | 0.206 | 0.236
NCI-H522 | – | – | – | – | – | 0.84 | 0.643 | 0.887 | 0.729 | 0.744 | – | – | – | – | – | 1.14 | 1.81 | 1.12 | 1.28 | 1.09
NCI-H661 | 0.907 | 1.11 | 0.793 | 0.805 | 1.16 | – | – | – | – | – | 0.566 | 0.502 | 0.406 | 0.248 | 0.267 | 0.83 | 0.953 | 0.88 | 0.696 | 0.504
NCI-H1299 | 1.06 | 1.06 | 1.03 | 1.03 | 1.04 | – | – | – | – | – | 0.976 | 1.06 | 1.03 | 0.918 | 0.802 | – | – | – | – | –
NCI-H1395 | – | – | – | – | – | 0.382 | 0.404 | 0.378 | 0.402 | 0.392 | 0.768 | 0.938 | 0.597 | 0.63 | 0.509 | 0.826 | 0.655 | 0.626 | 0.656 | 0.642
NCI-H1563 | 0.912 | 0.794 | 0.885 | 0.796 | 0.889 | – | – | – | – | – | 1.33 | 1.21 | 1.41 | 1.23 | 1.17 | 0.487 | 0.493 | 0.547 | 0.534 | 0.467
NCI-H1623 | – | – | – | – | – | – | – | – | – | – | – | – | – | – | – | 0.622 | 0.465 | 0.461 | 0.622 | 0.485
NCI-H1648 | – | – | – | – | – | 0.586 | 0.533 | 0.636 | 0.514 | 0.72 | – | – | – | – | – | – | – | – | – | –
NCI-H1650 | 0.201 | 0.169 | 0.205 | 0.223 | 0.194 | – | – | – | – | – | – | – | – | – | – | 0.188 | 0.217 | 0.193 | 0.204 | 0.235
NCI-H1703 | 0.309 | 0.294 | 0.192 | 0.181 | 0.206 | 0.116 | – | 0.135 | 0.122 | 0.123 | 0.546 | 0.553 | 0.226 | 0.242 | 0.201 | – | – | – | – | –
NCI-H1793 | – | – | – | – | – | 0.521 | 0.492 | 0.418 | 0.329 | 0.394 | 0.848 | 0.947 | 0.854 | 0.5 | 0.434 | 0.181 | 0.191 | 0.172 | 0.211 | 0.161
NCI-H1944 | – | – | – | – | – | 0.487 | 0.586 | 0.481 | 0.408 | 0.582 | 1.06 | 0.962 | 0.934 | 0.667 | 0.642 | 0.647 | 0.7 | 0.763 | 0.735 | 0.313
NCI-H2009 | 0.934 | 0.246 | 1.04 | 0.943 | 1.12 | – | – | – | – | – | 1.08 | 0.801 | 0.601 | 0.383 | 0.33 | 1.07 | 1.04 | 1.03 | 0.904 | 0.692
NCI-H2023 | 1.04 | 0.447 | 0.897 | 0.849 | 1.02 | – | – | – | – | – | 0.588 | 0.524 | 0.406 | 0.237 | 0.195 | 0.849 | 0.699 | 0.529 | 0.148 | 0.0557
NCI-H2170 | – | – | – | – | – | 0.871 | – | 0.743 | 0.611 | 1.1 | – | – | – | – | – | 0.681 | 0.631 | 0.557 | 0.758 | 0.603
NCI-H2228 | 1.16 | 1.09 | 0.991 | 1.35 | 1.14 | – | – | – | – | – | 0.377 | 0.589 | 0.613 | 0.356 | 0.291 | 0.136 | 0.139 | 0.12 | 0.118 | 0.126
NCI-H2342 | – | – | – | – | – | 0.502 | 0.635 | 0.421 | 0.402 | 0.464 | – | – | – | – | – | 0.817 | 0.719 | 0.699 | 0.731 | 0.64
SK-LU-1 | 1.22 | 1.24 | 1.13 | 0.956 | 1.17 | – | – | – | – | – | 0.76 | 0.744 | 0.487 | 0.545 | 0.45 | 0.202 | 0.196 | 0.23 | 0.219 | 0.174
SK-MES-1 | – | – | – | – | – | – | – | – | – | – | 0.928 | 0.845 | 0.554 | 0.437 | 0.339 | 0.842 | 0.704 | 0.756 | 0.284 | 0.164
SW 900 | – | – | – | – | – | 0.839 | 0.536 | 0.594 | 0.621 | 0.835 | – | – | – | – | – | 0.205 | 0.187 | 0.144 | 0.181 | 0.154
SW 1573 | 1.1 | 1.04 | 0.899 | 1.05 | 1.09 | – | – | – | – | – | 0.666 | 0.793 | 0.697 | 0.408 | 0.392 | 0.507 | 0.152 | 0.265 | 0.113 | 0.0969
